Source: ChEMBL document CHEMBL1143920, “Meclonazepam analogues as potential new antihelmintic agents” (Bioorg Med Chem Lett, 2008)
Values after ≈ are worked out from the molar mass of the structure shown.

system: Schistosoma mansoni; assay: Anthelmintic activity against Schistosoma mansoni; assay type: functional, organism-based

Structure (SMILES) | IC50 [µg/mL]
CC1N=C(c2ccccc2Cl)c2cc(N)ccc2NC1=O (centres undefined) | > 10
Cc1cc(C)c(O)c(/N=N/c2cccc3c2C(c2ccccc2Cl)=NC(C)C(=O)N3)c1 (centres undefined) | > 10
CC1N=C(c2ccccc2Cl)c2c(/N=N/c3ccc(O)cc3)cccc2NC1=O (centres undefined) | > 10
CCc1cc(/N=N/c2cccc3c2C(c2ccccc2Cl)=NC(C)C(=O)N3)ccc1O (centres undefined) | 5.79 (≈ 13.4 µM)
CC1N=C(c2ccccc2Cl)c2c(/N=N/c3c(F)cc(O)cc3F)cccc2NC1=O (centres undefined) | 3.8 (≈ 8.62 µM)
CC1N=C(c2ccccc2Cl)c2c(/N=N\c3c(O)ccc4ccccc34)cccc2NC1=O (centres undefined) | > 10
CC1NC(c2ccccc2Cl)c2cc([N+](=O)[O-])ccc2NC1=S (centres undefined) | 4.75 (≈ 13.7 µM)
CC1N=C(c2ccccc2Cl)c2c(/N=N\c3ccc(O)c4ccccc34)cccc2NC1=O (centres undefined) | 9.1 (≈ 20 µM)
CC1N=C(c2ccccc2Cl)c2c(/N=N/c3ccc(O)cc3Br)cccc2NC1=O (centres undefined) | 10 (≈ 20.7 µM)
CC1N=C(c2ccccc2Cl)c2cc([N+](=O)[O-])ccc2NC1=S (centres undefined) | 0.35 (≈ 1.01 µM)
CC1NC(c2ccccc2Cl)c2cc([N+](=O)[O-])ccc2NC1=O (centres undefined) | 1.3 (≈ 3.92 µM)
CC1N=C(c2ccccc2Cl)c2c(/N=N/c3c(Cl)cc(O)cc3Cl)cccc2NC1=O (centres undefined) | 5.79 (≈ 12.2 µM)
C[C@@H]1N=C(c2ccccc2Cl)c2cc([N+](=O)[O-])ccc2NC1=O [MECLONAZEPAM] | 0.37 (≈ 1.12 µM)
CC1N=C(c2ccccc2Cl)c2c(/N=N/c3ccc(O)c(C(C)C)c3)cccc2NC1=O (centres undefined) | 5.79 (≈ 13 µM)
